In brackets after ≈: the same amount, converted by molar mass.
Columns and labels:
[1] = tested on: KATO III stomach cancer cell line; assay: Compound was evaluated for cytotoxicity against KATO-III gastric carcinoma cells; format: functional, cell-based; details: Homo sapiens
[2] = tested on: L1210; assay: Compound was evaluated for cytotoxicity against L1210 leukemia cells; format: functional, cell-based; details: Mus musculus
[3] = tested on: KB; assay: Compound was evaluated for cytotoxicity against human epidermoid carcinoma of nasopharynx (KB) cells; format: functional, cell-based
[4] = tested on: P388; assay: Percentage of the median survival time of P388 leukemic mice (T) at intraperitoneal administration of 0.4 mg/kg dose to that of controls (C); format: functional, Mus musculus
[5] = tested on: P388; assay: Percentage of the median survival time of P388 leukemic mice (T) at intraperitoneal administration of 1.6 mg/kg dose to that of controls (C); format: functional, Mus musculus
[6] = tested on: P388; assay: Percentage of the median survival time of P388 leukemic mice (T) at intraperitoneal administration of 6.25 mg/kg dose to that of controls (C); format: functional, Mus musculus
[7] = tested on: B16; assay: Compound was evaluated for percent tumor volume against B16 melanoma in mice (T) at 1.6 mg/kg intravenous administration after 11 days ot that of control (C); format: functional, Mus musculus
[8] = tested on: B16; assay: Compound was evaluated for percent tumor volume against B16 melanoma in mice (T) at 1.6 mg/kg intravenous administration after 13 days ot that of control (C); format: functional, Mus musculus
[9] = tested on: B16; assay: Compound was evaluated for percent tumor volume against B16 melanoma in mice (T) at 1.6 mg/kg intravenous administration after 8 days ot that of control (C); format: functional, Mus musculus
[10] = tested on: B16; assay: Compound was evaluated for percent tumor volume against B16 melanoma in mice (T) at 3.13 mg/kg intravenous administration after 11 days ot that of control (C); format: functional, Mus musculus
[11] = tested on: B16; assay: Compound was evaluated for percent tumor volume against B16 melanoma in mice (T) at 3.13 mg/kg intravenous administration after 13 days ot that of control (C); format: functional, Mus musculus
[12] = tested on: B16; assay: Compound was evaluated for percent tumor volume against B16 melanoma in mice (T) at 3.13 mg/kg intravenous administration after 8 days ot that of control (C); format: functional, Mus musculus
[13] = tested on: Colon 26; assay: Compound was evaluated for percent tumor volume against colon 26 cells in mice (T) at a dose of 1.6 mg/kg intravenous administration after 10 days ot that of control (C); format: functional, Mus musculus
[14] = tested on: Colon 26; assay: Compound was evaluated for percent tumor volume against colon 26 cells in mice (T) at a dose of 1.6 mg/kg intravenous administration after 12 days ot that of control (C); format: functional, Mus musculus
[15] = tested on: Colon 26; assay: Compound was evaluated for percent tumor volume against colon 26 cells in mice (T) at a dose of 1.6 mg/kg intravenous administration after 8 days ot that of control (C); format: functional, Mus musculus
[16] = tested on: Colon 26; assay: Compound was evaluated for percent tumor volume against colon 26 cells in mice (T) at a dose of 6.25 mg/kg intravenous administration after 12 days ot that of control (C); format: functional, Mus musculus
[17] = tested on: Colon 26; assay: Compound was evaluated for percent tumor volume against colon 26 cells in mice (T) at a dose of 6.25 mg/kg intravenous administration after 8 days ot that of control (C); format: functional, Mus musculus
[18] = tested on: Colon 26; assay: Compound was evaluated for percent tumor volume against colon 26 cells in mice (T) at a dose of 3.13 mg/kg intravenous administration after 10 days ot that of control (C); format: functional, Mus musculus
[19] = tested on: Colon 26; assay: Compound was evaluated for percent tumor volume against colon 26 cells in mice (T) at a dose of 3.13 mg/kg intravenous administration after 12 days ot that of control (C); format: functional, Mus musculus
[20] = tested on: Colon 26; assay: Compound was evaluated for percent tumor volume against colon 26 cells in mice (T) at a dose of 3.13 mg/kg intravenous administration after 8 days ot that of control (C); format: functional, Mus musculus
[21] = tested on: Colon 26; assay: Compound was evaluated for percent tumor volume against colon 26 cells in mice (T) at a dose of 6.25 mg/kg intravenous administration after 10 days ot that of control (C); format: functional, Mus musculus
[22] = tested on: P388; assay: Percentage of the median survival time of P388 leukemic mice (T) at intraperitoneal administration of 0.8 mg/kg dose to that of controls (C); format: functional, Mus musculus
[23] = tested on: P388; assay: Percentage of the median survival time of P388 leukemic mice (T) at intraperitoneal administration of 3.13 mg/kg dose to that of controls (C); format: functional, Mus musculus

For `COc1ccc(C[C@H]2C(=O)N[C@@H](C)C(=O)N(C)[C@H]3Cc4cccc(c4)Oc4cc(ccc4OCCN(C)C)C[C@@H](C(=O)N[C@H](C)C(=O)N[C@@H](C)C(=O)N2C)N(C)C3=O)cc1`, the IC50 [1] was 0.079 µg/mL (≈ 0.0954 µM), the IC50 [2] was 0.018 µg/mL (≈ 0.0217 µM) and the IC50 [3] was 0.025 µg/mL (≈ 0.0302 µM).
Work on `CCN(CCOc1ccc2cc1Oc1cccc(c1)C[C@H]1C(=O)N(C)[C@@H](C2)C(=O)N[C@H](C)C(=O)N[C@@H](C)C(=O)N(C)[C@@H](Cc2ccc(OC)cc2)C(=O)N[C@@H](C)C(=O)N1C)c1ccccc1` yielded an IC50 [3] of 0.0099 µg/mL (≈ 0.011 µM).
Compound `COc1ccc(C[C@H]2C(=O)N[C@@H](C)C(=O)N(C)[C@H]3Cc4cccc(c4)Oc4cc(ccc4OCCN4CCCC4)C[C@@H](C(=O)N[C@H](C)C(=O)N[C@@H](C)C(=O)N2C)N(C)C3=O)cc1` has an IC50 [3] of 0.019 µg/mL (≈ 0.0222 µM).
In the case of `COc1ccc(C[C@H]2C(=O)N[C@@H](C)C(=O)N(C)[C@H]3Cc4cccc(c4)Oc4cc(ccc4OCCN4CCCCC4)C[C@@H](C(=O)N[C@H](C)C(=O)N[C@@H](C)C(=O)N2C)N(C)C3=O)cc1` [listing 1 of 2 here], the T/C [4] is reported as 115%, the T/C [5] is reported as 123% and the T/C [6] is reported as 127%.
`COc1ccc(C[C@H]2C(=O)N[C@@H](C)C(=O)N(C)[C@H]3Cc4cccc(c4)Oc4cc(ccc4OCCN4CCCCCC4)C[C@@H](C(=O)N[C@H](C)C(=O)N[C@@H](C)C(=O)N2C)N(C)C3=O)cc1` [listing 1 of 2 here] showed an IC50 [3] of 0.0076 µg/mL (≈ 0.00862 µM).
Work on `COc1ccc(C[C@H]2C(=O)N[C@@H](C)C(=O)N(C)[C@H]3Cc4cccc(c4)Oc4cc(ccc4OCCN4CCCCCC4)C[C@@H](C(=O)N[C@H](C)C(=O)N[C@@H](C)C(=O)N2C)N(C)C3=O)cc1` [listing 2 of 2 here] yielded a T/C [4] of 112%, a T/C [5] of 123% and a T/C [6] of 137%.
Work on `COc1ccc(C[C@H]2C(=O)N[C@@H](C)C(=O)N(C)[C@H]3Cc4cccc(c4)Oc4cc(ccc4OCCN(Cc4ccccc4)Cc4ccccc4)C[C@@H](C(=O)N[C@H](C)C(=O)N[C@@H](C)C(=O)N2C)N(C)C3=O)cc1` yielded an Activity [4] of 105%, an Activity [5] of 119% and an Activity [6] of 134%.
`CCN(CC)CCOc1ccc2cc1Oc1cccc(c1)C[C@H]1C(=O)N(C)[C@@H](C2)C(=O)N[C@H](C)C(=O)N[C@@H](C)C(=O)N(C)[C@@H](Cc2ccc(OC)cc2)C(=O)N[C@@H](C)C(=O)N1C` showed a T/C [4] of 116%, a T/C [5] of 124% and a T/C [6] of 136%.
`COc1ccc(C[C@H]2C(=O)N[C@@H](C)C(=O)N(C)[C@H]3Cc4cccc(c4)Oc4cc(ccc4OCCN4CCCCC4)C[C@@H](C(=O)N[C@H](C)C(=O)N[C@@H](C)C(=O)N2C)N(C)C3=O)cc1` [listing 2 of 2 here] was tested, and the IC50 [3] was 0.0087 µg/mL (≈ 0.01 µM).
In the case of `COc1ccc(C[C@H]2C(=O)N[C@@H](C)C(=O)N(C)[C@H]3Cc4cccc(c4)Oc4cc(ccc4OC)C[C@@H](C(=O)N[C@H](C)C(=O)N[C@@H](C)C(=O)N2C)N(C)C3=O)cc1`, the T/C [7] is reported as 62.4%, the T/C [8] is reported as 85.1% and the T/C [9] is reported as 65.8%. It also gave a T/C [10] of 55.5%, a T/C [11] of 49.9% and a T/C [12] of 60%. It also gave a T/C [13] of 72.8%, a T/C [14] of 88% and a T/C [15] of 55.8%. The T/C [16] was 78%, the T/C [17] was 49% and the T/C [18] was 60.9%. For the same compound, the T/C [19] was 85.6%, the T/C [20] was 48% and the T/C [21] was 50.3%. For the same compound, the T/C [4] was 144%, the T/C [22] was 144% and the T/C [5] was 152%. It also gave a T/C [23] of 163%.
